Experimental data: patent US11052069B2, “Regimes of FXR agonists” (NOVARTIS AG, priority 2016, dated 2021)
Where two headings read alike, the source gives them in different places.

Assays:
PBC = settings: in vivo; cited from earlier work
[1] = test system: NASH in adults with liver fibrosis; settings: human, in vivo; cited from earlier work
[2] = test system: STAM model of non-alcoholic steatohepatitis; assay: In vivo efficacy study in the STAM model of non-alcoholic steatohepatitis (Example 1); design: species or system C57BL/6 mice
Protocol: Steatohepatitis (Treatment period: 6 to 9 wks and 9-12 weeks)
The study involves 14-day-pregnant C57BL/6 mice. NASH was established by a single subcutaneous injection of 200 μg streptozotocin (Sigma, USA) after birth and feeding with a high fat diet (HFD, 57% kcal fat, CLEA Japan, Japan) ad libitum after 4 weeks of age (day 28±2). Randomization of NASH mice into groups of 12 mice at 6 weeks of age (day 42±2) and groups of 12 mice at 9 weeks of age (day 63±2), the day before the start of treatment, respectively. NASH animals were dosed from age 6-9 weeks (Study 1), or from age 9-12 weeks (Study 2) with either: vehicle, Compound A, OCA or Compound A. A non-disease vehicle-control group of was included in both Study 1 and Study 2. These animals were fed with a normal diet (CE-2; CLEA Japan) ad libitum.
PK samples were collected and stored at ≤−60° C. Animals were dosed according to the dosing schedule below. Each animal was sacrificed 5 hours after last morning dose on the last day of study treatment (the evening dose of cenicriviroc or vehicle […] that day due to sacrifice).
Measurements: • The following parameters were measured or monitored daily: individual body weight, survival, clinical signs and behavior of mice. • Pharmacokinetic measurements: PK samples were collected from 4 animals per time point per compound. PK samples were for Compound A at hours 1 and 24 on Day 6 (n=4 per timepoint) for both monotherapy and combination groups. PK samples were taken for Cenicriviroc on Day 10 at hours 2 and 12 (n=4 per timepoint) for both monotherapy and combination groups. Only one PK sample was collected per animal using the first 8 animals per group, per the schedule below:
Mice were sacrificed at 9 weeks of age (study 1) or at 12 weeks of age (study 2).
The following samples were collected: plasma, liver (fresh liver samples for gene expression analysis were collected at 5 hr post the last morning (AM) dose for each animal), stool. Organ weight was measured.
The following biochemical assays were performed: Non-fasting blood glucose in whole blood by Life Check (Eidia, Japan); serum ALT by FUJI DRI-CHEM (Fujifilm, Japan); serum triglyceride; serum MCP-1, RANTES (CCLS) and MIP-1a/MIP-1 quantification by a commercial ELISA kit; liver triglyceride by Triglyceride E-test kit (Wako, Japan); liver hydroxyproline quantification by hydrolysis method; histological analyses for liver section; HE staining and estimation of NAFLD Activity score; Sirius-red staining and estimation of fibrosis area (with and without perivascular space subtracted); oil red staining and estimation of fat deposition area; F4/80 immunohistochemistry staining and estimation of inflammation area; alpha-SMA immunohistochemistry staining and estimation of α-SMA positive area Gene expression assays using total RNA from the liver.
Statistical tests were performed using one-way ANOVA followed by Dunnett's test and the Mann-Whitney test, as appropriate, for the multiple group comparisons. P values <0.05 are considered statistically significant.

STAM mouse model of NASH = assay: Compound A versus OCA in the STAM mouse model of NASH (Example 2); assay type: in vivo; settings: Compound A 3 to 30 mg/kg vs OCA 25 mg/kg, 3 weeks
From the text: FIGS. 1 and 2 describe an in-vivo efficacy study of Compound A versus OCA in the STAM model of non-alcoholic steatohepatitis for a treatment period of 6-9 weeks. FIG. 2 refers to the results on NAFLD Activity Score; FIG. 1 to Sirius-red positive area.
NASH was induced for 6 weeks prior to treatment with the indicated compound (and dose). Then, they have been treated with the indicated compound for 3 weeks prior to sacrifice.
(§1) NAFLD Activity Score from H&E stained liver sections from STAM disease (NASH) animals treated for 3 weeks with the indicated compound or vehicle. Disease was initiated in animals for 6 weeks prior to dosing and then animals were treated with Vehicle-1, Vehicle-2, Compound A (3 to 30 mg/kg) or OCA (25 mg/kg) for 3 weeks. NAS was determined by the method of Kleiner (Kleiner et al. 2005).
as §1, with “Sirius red” for “NAFLD Activity Score from H&E”, “Quantitative analysis” for “NAS was determined by the method”, “Sirius Red sections were performed using ImageJ software.” for “Kleiner (Kleiner et al. 2005).”

ANIT-induced cholestasis = assay: Rat ANIT-induced cholestasis chronic treatment model; assay type: in vivo
Protocol: The efficacious concentration of Compound A was determined by PK/PD modeling from the rat ANIT-induced cholestasis chronic treatment model.

[3] = Human study SAD/MAD: safety, tolerability and plasma pharmacokinetics; assay type: in vivo
Protocol: (§2) Methods: SAD: Subjects received 5 to 750 mg of Compound A (7 cohorts: 6 active, 2 placebo); subjects from one cohort returned for a second dosing cycle with a high-fat meal (3 active, 1 placebo). MAD: Subjects received 5 to 250 mg of Compound A daily for 14 days (5 cohorts; 6 active, 2 placebo). All adverse events (AEs) were captured, and plasma levels of Compound A and PD biomarkers were determined pre- and post-dosing at various time points.

[4] = test system: FGF19, C4, total bile acid; assay: Human study SAD/MAD: PD biomarkers; assay type: in vivo
Protocol: as §2

[5] = test system: nonalcoholic steatohepatitis patients; settings: long term administration; cited from earlier work

## C[C@H](CCC(=O)O)[C@H]1CC[C@H]2[C@@H]3[C@@H](O)C[C@@H]4C[C@H](O)CC[C@]4(C)[C@H]3CC[C@]12C [UDCA, Ursodeoxycholic acid]
PBC
  population that does not respond: 30-40%

## CCCCOCCOc1ccc(-c2ccc3c(c2)/C=C(/C(=O)Nc2ccc([S@@+]([O-])Cc4cncn4CCC)cc2)CCCN3CC(C)C)cc1 [cenicriviroc, (S,E)-8-(4-(2-butoxyethoxy)phenyl)-1-(2-methylpropyl)-N-(4-(((1-propyl-1H-imidazol-5-yl)methyl)sulfinyl)phenyl)-1,2,3,4-tetrahydrobenzo[b]azocine-5-carboxamide]
[1]
  Adverse effects: can induce fatigue or diarrhea in a small part of the patients
  Fibrosis: reduction of fibrosis
  Improvement of NAS: no significant impact

## Cn1nc(C(=O)N(Cc2ccccc2)Cc2ccc(C(=O)O)cc2)c2c1-c1cc(Cl)ccc1OC2 [Compound A, 4-((N-benzyl-8-chloro-1-methyl-1,4-dihydrochromeno[4,3-c]pyrazole-3 carboxamido)methyl)benzoic acid]
[2]; Study 1
  Ballooning, NAS (mean +/− SD): 1.3 ± 0.8
  Ballooning, Score 0 (number of animals/group): 2
  Ballooning, Score 1 (number of animals/group): 3
  Ballooning, Score 2 (number of animals/group): 5
  Fibrosis, NAS (mean +/− SD): 0.51 ± 0.25
  Inflammatory infiltrates, Score 0 (number of animals/group): 7
  Inflammatory infiltrates, Score 1 (number of animals/group): 2
  Inflammatory infiltrates, Score 2 (number of animals/group): 1
  Inflammatory infiltrates, Score 3 (number of animals/group): 0
[2]; Study 1, dosed from age 6-9 weeks
  NAS (mean +/− SD): 2.7 ± 1.1
[2]; Study 2
  Ballooning, NAS (mean +/− SD): 0.7 ± 0.8
  Ballooning, Score 0 (number of animals/group): 5
  Ballooning, Score 1 (number of animals/group): 3
  Ballooning, Score 2 (number of animals/group): 2
  Fibrosis, NAS (mean +/− SD): 0.55 ± 0.32
  Inflammatory infiltrates, Score 0 (number of animals/group): 3
  Inflammatory infiltrates, Score 1 (number of animals/group): 1
  Inflammatory infiltrates, Score 2 (number of animals/group): 4
  Inflammatory infiltrates, Score 3 (number of animals/group): 2
[2]; Study 2, dosed from age 9-12 weeks
  NAS (mean +/− SD): 2.7 ± 1.1
[2]; both studies
  Ballooning compared with the STAM-Vehicle group: trend for the reduction of ballooning
  Fibrosis area compared with the STAM-Vehicle group: trend for the reduction of the fibrosis area
[2]; both studies 1 and 2
  Inflammatory infiltrates compared with the STAM-Vehicle group: significant reduction of Inflammatory infiltrates
  NAS compared with the STAM-Vehicle group: significant reduction in NAS
STAM mouse model of NASH
  Reduction of fibrosis: to a greater extent than OCA
  Reduction of hepatic steatosis: to a greater extent than OCA
  Reduction of hepatocellular ballooning: to a greater extent than OCA
  Reduction of lobular inflammation: to a greater extent than OCA
ANIT-induced cholestasis; 1.5 mg/kg
  ALT reduction: 75%
  AST reduction: 80%
  GGT reduction: 85%
ANIT-induced cholestasis; rat, in vivo
  ANIT-induced histologic alterations in the liver: reduced the ANIT-induced histologic alterations in the liver
[3]; MAD
  accumulation ratio: mild
[3]; MAD, daily for 14 days
  Steady-state reached: ≤ 5 days
[3]; SAD, with high-fat meal
  AUC decrease: 26%
  Cmax decrease: 58%
[3]; any cohort
  Severe drug-related AEs: No severe drug-related AEs were reported
[3]; daily doses of 5 mg to 750 mg
  Safety and pharmacological activity: safe and pharmacological active
[3]; daily doses up to 250 mg for 14 days
  SAEs attributed: No SAEs have been attributed
[3]; human, plasma, oral, SAD, with high-fat meal, read-out: median Tmax
  Tmax: 4 h
[3]; human, plasma, oral, SAD, 5-750 mg doses
  Cmax: 177 to 12700 ng/mL
[3]; human, plasma, oral, SAD, 5-750 mg doses, read-out: mean t1/2
  half-life: 702 to 1410 min
[3]; human, plasma, oral, SAD, 5-750 mg doses, read-out: median plasma Tmax
  Tmax: 1.75 to 3 h
[3]; maximum doses tested (750 mg SAD and 250 mg MAD)
  Tolerability: well tolerated
[4]; MAD, Day 14
  plasma FGF19 levels: dose-dependent increase
[4]; MAD, Day 14, 250 mg
  plasma FGF19 median Cmax: 979 pg/mL
[4]; MAD, similar dose range
  serum C4 levels: decline
  total bile acid (TBA) levels: decline
[4]; doses even beyond 250 mg
  FGF19 with increasing doses: continues to rise
[4]; in vivo
  Serum FGF15 levels: increased with Compound A treatment in a dose-dependent manner

## CC[C@H]1[C@@H](O)[C@@H]2[C@H](CC[C@]3(C)[C@@H]([C@H](C)CCC(=O)O)CC[C@@H]23)[C@@]2(C)CC[C@@H](O)C[C@@H]12 [OCA, Obeticholic acid]
[5]
  Safety concerns: can be associated with pruritus, as well as with increased LDL cholesterol
